# Experiments:
# [1] = test system: P. aeruginosa biofilms; assay: Biofilm dispersion in 24-well plates, crystal violet staining of remaining biofilm biomass; format: cell-based, Pseudomonas aeruginosa; conditions: controls: heat-inactivated PDH increasing concentrations; cofactors; acetyl-CoA 0.2 mM; NADH 2 mM; lactate 10 mM
# Protocol: P. aeruginosa biofilms grown for 4 days in 24-well plates were exposed to pyruvate-depleting conditions. This was accomplished by exposing biofilms to increasing concentration of the enzyme pyruvate dehydrogenase (PDH) having a specific activity of 0.57 U/mg. PDH catalyzes the conversion of pyruvate to acetyl-CoA in the presence of CoA and NAD^+. Specifically, biofilms were exposed to 5, 10, and 20 mU (8.7, 17.4, and 32.8 mg enzyme) of PDH in the presence of NAD^+ and CoA. Biofilms grown in LB but left untreated were used as controls. Following overnight incubation, the remaining biofilm was stained using crystal violet.
# Biofilms were grown in a 24-well plate system modified from the procedure described by Caiazza and O'Toole (2004) to elucidate the role of pyruvate in biofilm formation and biofilm dispersion.
# Overnight cultures grown in LB medium were adjusted to an OD600 of 0.05 in fresh 5-fold diluted LB VBMM and grown at 37° C. and rotated at 220 r.p.m. in 24-well microtiter plates at a 45° angle, ensuring that the bottom of the wells is at the air-liquid interface, with the medium exchanged every 12 h.
# For biofilm dispersion, biofilms were first grown for 4 days after which time the growth medium was supplemented with 10 mU porcine pyruvate dehydrogenase, cofactors (1 mM b-NAD, 1 mM sodium Co-A, 20 μM TPP) and allowed to incubate for an additional 16 h.
# [2] = test system: P. aeruginosa biofilms; assay: Microscopy (confocal, brightfield) of biofilm architecture and microcolony void formation; format: cell-based, Pseudomonas aeruginosa; conditions: 4-day biofilms, PDH 10 mU plus 500 uM SNP as NO source, 16 h
# From the text: To determine how exposure to PDH accomplished a reduction in the biofilm biomass, the remaining biofilm architecture was visually analyzed by confocal microscopy. Relative to untreated biofilms, biofilms exposed to PDH were not only characterized by an overall reduced biofilm biomass but by microcolonies having central voids (FIGS. 2E3 and 2F2). Void formation has previously linked with biofilm dispersion, a process in which sessile, surface-attached organisms liberate themselves from the biofilm to return to the planktonic state. […] In contrast, the vast majority of microcolonies by untreated biofilms were intact (FIG. 2E1), with only less than 8% of the microcolonies featuring central void formation (FIG. 2G). […]
# Differences in the biofilm architecture were visualized by crystal violet staining or microscopy (brightfield, confocal laser scanning). Differences in drug susceptibility were evaluated by viability count.
# FIGS. 15A-15F show the effect of PDH nanoparticles (NP) on biofilms. […] Biofilm biomass was quantitatively determined by confocal microscopy and COMSTAT analysis prior/post 24 h PDH treatment. […]
# Biofilms were grown for 4 days in 24-well polystyrene plates in five-fold diluted LB. […] Number of microcolonies as percent of the total colonies counted per treatment group is shown. […]
# [3] = test system: P. aeruginosa ATCC 27312; assay: Porcine burn wound biofilm infection model; format: in vivo, Pseudomonas aeruginosa
# Protocol: The well-known clinical burn wound isolate P. aeruginosa ATCC 27312 was employed.
# Burn wounds were inoculated with 25 μl of a standardized P. aeruginosa suspension harboring 10^6 CFU/ml and allowed to establish biofilms for 24 h. Infected wounds were subsequently treated daily with 100 and 200 mU PDH in the absence of presence of 100 μg/ml tobramycin. Untreated wounds and wounds only exposed to carrier solution were used as controls. Following 3 and 6 days of treatment, bacterial cells present in wounds were harvested using a flush and scrub technique that separates biofilm bacteria from planktonic bacteria, by flushing the non-adherent (planktonic) bacteria off the wound, followed by scrubbing of the wound to remove adherent biofilm-associated bacteria from the wound bed.
# Second degree porcine burn wounds were infected with P. aeruginosa ATCC® 27312™. […] Then, bacterial cells were removed from the wounds and the number of viable cells, as shown in (CFU) per wound determined using viability counts. […] Experiments are representative data obtained using 3 wounds per treatment group (n=3). Error bars represent standard deviation.
# [4] = test system: P. aeruginosa biofilms; assay: Biofilm susceptibility assay, viability count; format: cell-based, Pseudomonas aeruginosa; conditions: 4-day biofilms, tobramycin 100 μg/ml, PDH 10 mU where present, overnight
# Protocol: It is well established that planktonic cells are more susceptible to antimicrobial agents than their counterparts growing as a biofilm, and that dispersion coincides with bacteria transitioning to the planktonic mode of growth. […] P. aeruginosa biofilms grown for 4 days in 24-well plates were exposed to 100 μg/ml tobramycin in the absence of presence of PDH. Following overnight incubation, the number of viable biofilm cells were determined using viability count. […] Tobramycin in the presence of 10 mU PDH coincided with a reduction in the biofilm biomass to 3.5×10^3 cells/biofilm (FIG. 12A), with the reduction in the viable cells being equivalent to an overall 5.9-log reduction in the biofilm biomass relative to untreated biofilms. […] For susceptibility assays, biofilms were grown as for dispersion assays, but following 4 days of growth, the growth medium was supplemented the aminoglycoside antibiotic tobramycin (100 μg/ml), 10 mU porcine pyruvate dehydrogenase, and cofactors (1 mM b-NAD, 1 mM sodium Co-A, 20 μM TPP). Untreated biofilms or biofilms only exposed to cofactors alone were used as controls. Differences in the biofilm architecture were visualized by crystal violet staining or microscopy (brightfield, confocal laser scanning). Differences in drug susceptibility were evaluated by viability count.
compound,measurement,setting,value
NC(=O)c1ccc[n+]([C@@H]2O[C@H](COP(=O)([O-])OP(=O)(O)OC[C@H]3O[C@@H](n4cnc5c(N)ncnc54)[C@H](O)[C@@H]3O)[C@@H](O)[C@H]2O)c1 [NAD+],effect on biofilm biomass relative to untreated biofilms,[1],no effect
NC(=O)C1=CN([C@@H]2O[C@H](COP(=O)(O)OP(=O)(O)OC[C@H]3O[C@@H](n4cnc5c(N)ncnc54)[C@H](O)[C@@H]3O)[C@@H](O)[C@H]2O)C=CC1 [NADH],effect on biofilm biomass relative to untreated biofilms,[1],did not result in increased biofilm biomass accumulation
CC(=O)SCCNC(=O)CCNC(=O)[C@H](O)C(C)(C)COP(=O)(O)OP(=O)(O)OC[C@H]1O[C@@H](n2cnc3c(N)ncnc32)[C@H](O)[C@@H]1OP(=O)(O)O [acetyl-CoA],effect on biofilm biomass relative to untreated biofilms,[1],did not result in increased biofilm biomass accumulation
CC(O)C(=O)O (stereo not drawn) [lactate],effect on biofilm biomass relative to untreated biofilms,[1],no difference
[N]=O [nitric oxide],effect on PDH-induced dispersion of biofilms (microcolonies with void formation),[2],can enhance
NC[C@H]1O[C@H](O[C@H]2[C@H](O)[C@@H](O[C@H]3O[C@H](CO)[C@@H](O)[C@H](N)[C@H]3O)[C@H](N)C[C@@H]2N)[C@H](N)C[C@@H]1O [tobramycin],log reduction of P. aeruginosa biofilms present in porcine burn wounds,"[3]; as stated in the summary, tobramycin with or without pyruvate-depleting conditions",2.5 log
same,log reduction in viable biofilm cells (scrub) relative to untreated,[3]; tobramycin 100 μg/ml daily,2 log
same,log reduction of the biofilm biomass (viable cells) relative to untreated,[4],2.5 log
same,number of viable cells remaining,[4]; untreated 2.4×10^8,1.2×10^5 cells per biofilm

# From US11541105B2, “Compositions and methods for disrupting biofilm formation and maintenance” (The Research Foundation for the State University of new York, priority 2018, dated 2023)
